Publication PMC12466479, “The Supersulfide-Producing Activity of Rat Cystathionine γ-Lyase Is Irreversibly Inactivated by L-CysNO but Not by L-GSNO” (Antioxidants, 2025)

Experiments:
[1] = biological target: T1, Cystathionine γ-lyase (CSE) (Rattus norvegicus, UniProt P18757); experiment: SSP4 fluorescence assay of Cys-SSH production from cystine after preincubation with L-CysNO; also a substrate (HSNO by TAP-1, pyruvate assay); format: biochemical; design: gene Cth; recombinant rat CSE expressed in E. coli as GST-CSE, GST tag cleaved
T1 sequence (P18757 whole entry): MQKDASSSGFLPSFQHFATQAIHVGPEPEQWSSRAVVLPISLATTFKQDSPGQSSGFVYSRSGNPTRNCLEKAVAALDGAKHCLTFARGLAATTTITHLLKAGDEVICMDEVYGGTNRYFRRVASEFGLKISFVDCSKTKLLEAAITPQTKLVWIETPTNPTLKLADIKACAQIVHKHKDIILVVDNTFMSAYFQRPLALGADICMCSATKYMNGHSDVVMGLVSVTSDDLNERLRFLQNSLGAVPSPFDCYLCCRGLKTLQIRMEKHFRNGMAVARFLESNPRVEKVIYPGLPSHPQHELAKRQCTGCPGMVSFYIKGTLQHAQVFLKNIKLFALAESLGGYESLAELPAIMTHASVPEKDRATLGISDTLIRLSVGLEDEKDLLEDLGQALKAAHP

[2] = biological target: T1, Cystathionine γ-lyase (CSE); experiment: TAP-1 assay of HSNO production from L-CysNO with or without […] PLP; format: biochemical; design: gene Cth; recombinant rat CSE, purified from E. coli
[3] = biological target: T1, Cystathionine γ-lyase (CSE); design: gene Cth
[4] = biological target: T1, Cystathionine γ-lyase (CSE); design: gene Cth; remark: listed apart in the source

SMILES: N[C@@H](CSN=O)C(=O)O [L-CysNO, L-S-nitrosocysteine]
- IC50 [1]: 10 µM

SMILES: Cc1ncc(COP(=O)(O)O)c(C=O)c1O [PLP, pyridoxal 5′-phosphate]
- TAP-1 assay of HSNO production from L-CysNO with or without 50 μM PLP [2]: The PLP-dependent β-lyase activity of CSE toward L-CysNO—but not D-CysNO—in producing HSNO was evident

SMILES: N[C@@H](CCSC[C@H](N)C(=O)O)C(=O)O [cystathionine]
- DTNB assay of cysteine formed from 1 mM cystathionine (γ-lyase activity) [3]: The cysteine produced by CSE from cystathionine was measured by DTNB assay

SMILES: N[C@@H](CSSC[C@H](N)C(=O)O)C(=O)O [cystine]
- SSP4 fluorescence assay of Cys-SSH formed from 1 mM cystine (β-lyase activity) [4]: The Cys-SSH produced by CSE with cystine as the substrate was measured by using SSP4
